Test results reported in patent US8986696B2, “Trans-capsular administration of p38 map kinase inhibitors into orthopedic joints” (DePuy Mitek, Inc., priority 2007, dated 2015).
Read-outs that look alike come from different tables or passages of the source.

What was measured:
[1] = system: IL-1β-stimulated NO production, bovine chondrocyte pellets / ARC tissues; assay: chondrocyte pellet culture model: total nitrite/nitrate (NO); assay type: cell-based; conditions: for NO production: 10 ng/ml IL-1β
Excerpt: (§1) Calf articular cartilage was obtained from the knee joints of eight to twelve month old animals and was processed within twenty-four hours after sacrifice. After removal of muscle and ligament, the cartilage was kept moist using phosphate buffer solution (PBS) to prevent tissue dehydration, and was aseptically peeled off from subchondral bone with a scalpel, and the cartilage pieces were further minced into smaller pieces (˜0.3-0.5×˜0.2-0.5 cm cubes). […] Chondrocytes were then enzymatically isolated from the tissue by incubation for overnight at 37° C. with gentle agitation in 0.2% collagenase in Dulbecco's modified eagle media (DMEM). After removal of tissue debris by filtration through cell strainer and the residual collagenase by 3× wash in PBS, cells were finally resuspended at a density of 2.5×10^6 cells/ml in chondrocyte medium. A 1 ml aliquot of the cell suspension was dispensed into either a 15 ml Falcon centrifuge tube or a 96 deep-well plate and centrifuged at 2000×g for five minutes. The chondrocyte pellets were incubated at 37° C. in a humidified atmosphere of 5% CO2 for two to three weeks with a medium change every other day.
(§2) As an alternative to using calf articular cartilage, a commercial Alginate Recovered Chondrocytes (ARC) system was also used (Articular Engineering, LLC (Northbrook, Ill.)). Use of the commercial system cut down on labor and time in producing chondrocyte pellet. This system produced cartilaginous tissue in vitro using bovine chondrocytes. The first step consisted of culturing chondrocytes in alginate under conditions optimal for the formation of a cell-associated matrix (CM). The second step allowed these cells with their CM, after recovery, to rapidly form and become integrated into a solid mass of cartilage on a porous insert within two weeks. This tissue is rich in cells surrounded by a cell-associated matrix that is degraded rapidly when the cells are exposed to IL-1. ARC tissues in 3 mm punches at delivery were first dispensed into a 96 deep-well plate, one punch per well, for compound treatment. The subsequent procedures were the same as those used for the chondrocyte pellets.
(§3) Chondrocyte pellets were washed once with 1 ml of Chondrocyte Stimulation Medium and equilibrated in the same medium at room temperature for fifteen to thirty minutes. Compounds were dissolved in H2O, Ethanol or dimethyl sulfoxide (DMSO) (10^−2 M) according to suppliers' instructions and further diluted with Chondrocyte Stimulation Medium to the required concentrations. DMSO concentrations in the culture media should not exceed 1%; this concentration of DMSO has no effect on cartilage proteoglycan metabolism in response to cytokines.
(§4) The pellets were first treated with compounds at desired concentrations at 37° C. for one hour and then incubated for three to five days in the absence or presence of 10 ng/ml of IL-1β. At the end of the incubation, media and pellets were harvested and frozen for further analysis. Pellets were also fixed as needed in 4% (w/v) paraformaldehyde in PBS for histology analysis.
Nitrate/Nitrite levels were measured using the Griess reaction (Green L. C. et al., “Analysis of Nitrate, Nitrite, and [15N]nitrate in Biological Fluids,” Anal. Biochem. 126: 131-138 (1982)) with aNitrate/Nitrite Colorimetric Assay Kit (Cayman Chemicals), the contents of which are incorporated herein by reference. The assay involved a simple two-step process. The first step involved conversion of nitrate in 50 μl of culture medium to nitrite utilizing nitrate reductase in a reaction volume of 100 μl at room temperature for two hours. The second step involved the addition of 50 μl of both Griess Reagent 1 and 2, which converted nitrite into a deep purple azo compound in ten minutes. Photometric measurement of the absorbance at 540 or 550 nm due to this azo chromophore accurately determined nitrite concentration. […]

[2] = system: IL-1β-stimulated PGE2 synthesis, bovine chondrocyte pellets / ARC tissues; assay: chondrocyte pellet culture model: PGE2; assay type: cell-based; conditions: for PGE2 synthesis: 10 ng/ml IL-1β
Excerpt: as §1, §2, §3, §4
Prostaglandin E2 (PGE2) was measured with a STAT-Prostaglandin E2 EIA ELISA kit (Cayman Biochemicals). This assay is based on the competition between PGE2 from 50 μl samples and a PGE2-alkaline phosphatase conjugate for a limited amount of PGE2 monoclonal antibody in a reaction volume of 150 μl at room temperature for one hour. The antibody-PGE2 complex bound to a goat polyclonal anti-mouse IgG that had been previously attached to the well. After washing to remove any unbound reagents, para-nitrophenyl phosphate (pNPP) was added to the well. The product of this enzymatic reaction absorbs strongly at 412 nm. Because of the large range in response to IL-1β and other cytokines, PGE2 values were converted to log scale prior to doing t-tests.

[3] = solubility; assay type: physicochemical
[4] = assay type: physicochemical
Method: JNJ 3026582 (RWJ 67657) was gamma irradiated on dry ice at a dose of 15 kgray. Then the sterile drug was aseptically mixed with ORTHOVISC® in the concentrations of 10 μg/mL and 100 μg/mL. Drug content uniformity was confirmed by reverse phase HPLC. There was approximately 100% drug stability.
JNJ 17089540 (RWJ 669307) was gamma irradiated on dry ice at a dose of 15 kgray. The sterile drug as aseptically mixed with ORTHOVISC® in the concentrations of 1 ug/uL and 10 ug/uL. Drug content uniformity was confirmed by reverse phase HPLC. There was approximately 100% drug stability.
Suprofen was gamma irradiated on dry ice at dose of 15 kgray. The sterile drug was aseptically mixed with ORTHOVISC® in the concentration of 1.3 ug/uL. Drug content uniformity at time of preparation and stability of 4 months at 4° C. was confirmed by reverse phase HPLC that there was around 100% drug stability.

[5] = diacerein at 5.4 μM, rhein at 0.35 μM

Q: What does the source list for `CC(=O)Oc1cccc2c1C(=O)c1c(OC(C)=O)cc(C(=O)O)cc1C2=O` [Diacerein, reference compound]?
A: NO production [1, 5]: significantly inhibited; PGE2 synthesis [2, 5]: no effect

Q: For `OCCC#Cc1nc(-c2ccc(F)cc2)c(-c2ccncc2)n1CCCc1ccccc1` [JNJ 3026582 (RWJ 67657), 4-[4-(4-fluorophenyl)-1-(3-phenylpropyl)-5-(4-pyridinyl)-1H-imidazol-2-yl]-3-butyn-1-ol], which “water solubility” value [3] is on record?
A: poor water solubility

Q: What about the “pH at which soluble” value ([3]; soluble at pH<2) of the same molecule?
A: < 2

Q: What about the drug stability [4] of the same molecule?
A: approximately 100%

Q: With `C[C@H](Nc1nccc(-c2c(-c3ccc(F)cc3)nc3nc(N)ccn23)n1)c1ccccc1` [JNJ 7583979 (RWJ 351958)] as the molecule, how does the “water solubility” value [3] read?
A: poor water solubility

Q: What about the “NO production” value ([1]; ARC) of the same molecule?
A: significantly inhibited

Q: What about the “PGE2 synthesis” value ([2]; ARC) of the same molecule?
A: significantly inhibited

Q: What does the source list for `CC(=O)N1CCN(c2c(-c3ccncc3)c(-c3ccc(F)cc3)c(C#N)n2C)CC1` [JNJ 17089540 (RWJ 669307)]?
A: water solubility ([3]; HCl salt): > 100 mg/mL; drug stability [4]: approximately 100%; IC50 ([1]; Pellet Assay, read-out: NO Inhibition IC50): 4.9 µM; IC50 ([1]; bovine ARC, 7.5 ng/ml IL-1β, five days, read-out: NO IC50): 4.92 µM; IC50 ([2]; Pellet Assay, read-out: PGE2 Inhibition IC50): 29.6 µM; IC50 ([2]; bovine ARC, 7.5 ng/ml IL-1β, five days, read-out: PGE2 IC50): 29.6 µM

Q: With `CC(C(=O)O)c1ccc(C(=O)c2cccs2)cc1` (stereo not drawn) [Suprofen, reference compound] as the molecule, how does the drug stability ([4]; 4 months, 1.3 ug/uL) read?
A: around 100%
